Laboratory results taken from patent US7074420B2, “Cosmetic treatment using a new retinoid” (Avon Products, Inc., priority 2001, dated 2006).

Test: stability of compositions (lasting white color, no yellowing over time)
Type: physicochemical
Details: particularly in a stick product form
From the text: This is evidenced by a lasting white color of the present compositions, without the manifestation of yellowing over time, particularly in a stick product form. The present compositions can also be in other cosmetic product forms, such as, for example, an emulsion, a gel, a lip balm, a lip gloss, a lipstick, a lotion, a mask, an ointment, a patch, a pomade, a solution, a spray, or a towelette.

CC(C=CC1=C(C)CCCC1(C)C)=CC=CC(C)=CCO[Si](C)(C)C [retinoxytrimethylsilane]
stability of compositions compared to prior art: more stable compositions than those of the prior art
